Measurements: patent US20150203561A1, “BETA THYMOSIN FRAGMENTS” (REGENERX BIOPHARMACEUTICALS, INC., priority 2008, published 2015)

Assays:
neurite outgrowth = assay: Promotion of neurite outgrowth (summary table); parameters: key: P = active; U = useful; settings: summary of peptide uses
[1] = tested on: tissue damage caused by UV radiation; assay: UV radiation tissue damage (summary table); parameters: key: P = active; U = useful; settings: summary of peptide uses
neuron survival = assay: Promotion of neuron survival (summary table); parameters: key: P = active; U = useful; settings: summary of peptide uses
human dermal fibroblasts [2] = assay: Collagen secretion, colorimetric assay; type: cell-based; parameters: key to Stimulates collagens / Inhibits collagens: P = active; U = useful; settings: for Stimulates collagens / Inhibits collagens: summary of peptide uses
Procedure: (§1) Effect of Tb4 and peptides on collagen secretion • Human dermal fibroblasts (Fb) were cultured to 80% confluence • Cells were treated with 1 μg/ml Tb4 or peptides for 24, 48, or 72 hours. Cells were treated once/day. • Culture supernatants (n=3, experiments repeated 5 times) were assayed for collagen secretion using a colorimetric assay that detects collagen types I, II, III, IV and V, and possibly VII

L1 = assay: Stimulation of L1 production (summary table); parameters: key: P = active; U = useful; settings: summary of peptide uses
IKKb = target: T1, IKKb (Homo sapiens, UniProt O14920); assay: Cell-free IkBa phosphorylation ELISA (NFkB signaling pathway); type: biochemical; parameters: key to Inhibits IkBa phosphorylation: P = active; U = useful
T1 sequence (O14920 1-756): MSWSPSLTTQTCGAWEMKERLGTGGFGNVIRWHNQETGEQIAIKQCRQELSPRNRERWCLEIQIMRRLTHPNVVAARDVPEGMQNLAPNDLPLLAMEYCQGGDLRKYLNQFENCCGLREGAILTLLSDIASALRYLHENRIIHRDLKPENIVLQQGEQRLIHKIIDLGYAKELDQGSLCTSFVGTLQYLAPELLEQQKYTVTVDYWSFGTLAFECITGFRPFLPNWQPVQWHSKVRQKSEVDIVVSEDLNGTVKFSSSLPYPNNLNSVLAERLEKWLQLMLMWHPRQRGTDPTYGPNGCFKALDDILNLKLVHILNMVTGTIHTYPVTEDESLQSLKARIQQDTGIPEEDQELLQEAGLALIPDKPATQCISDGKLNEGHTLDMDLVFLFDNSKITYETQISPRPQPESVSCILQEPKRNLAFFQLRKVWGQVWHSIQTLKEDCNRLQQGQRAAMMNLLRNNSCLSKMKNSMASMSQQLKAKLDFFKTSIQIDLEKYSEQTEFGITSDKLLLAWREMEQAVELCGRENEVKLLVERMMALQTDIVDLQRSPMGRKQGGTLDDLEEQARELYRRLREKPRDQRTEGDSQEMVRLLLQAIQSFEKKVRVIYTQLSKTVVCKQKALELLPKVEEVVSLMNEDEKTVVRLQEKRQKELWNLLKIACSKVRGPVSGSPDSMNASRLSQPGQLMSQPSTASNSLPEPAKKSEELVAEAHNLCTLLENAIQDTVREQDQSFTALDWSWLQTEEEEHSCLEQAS
Procedure: Effect of Tb4 and peptides on the NFkB signaling pathway • Cell-free assay • Prepared 1.0, 0.1, and 0.01 ng/ml solutions of Tb4 or peptides in kinase buffer supplied with kit • Added 10 μl of the solutions to wells of a 96-well plate coated with lkBa • IKKb (20 mU) was added to wells • 90 μl kinase reaction buffer (containing ATP) was added to the wells • ELISA to detect phosphorylated lkBa

cell migration = assay: Stimulation of migration (summary table); type: cell-based; parameters: key: P = active; U = useful; settings: summary of peptide uses
human dermal fibroblasts [3] = assay: Elastin secretion, colorimetric assay; type: cell-based; parameters: key to Stimulates Elastin: P = active; U = useful; settings: for Secretion of elastin: dermal Fb, 1 μg/ml once/day, 24, 48, or 72 hours; for Stimulates Elastin: summary of peptide uses
Procedure: as §1, with “elastin” for “collagen”, “6” for “5”, “• Data was analyzed using the t-test” for “that detects collagen types I, II, III, IV and V, and possibly VII”

human dermal fibroblasts [4] = assay: LDH cytotoxicity assay in human dermal fibroblasts exposed to cytotoxic agents; type: cell-based; parameters: key to Protects from cytotoxicity: P = active; U = useful; settings: for Protects from cytotoxicity: summary of peptide uses
Procedure: Dose Response Analysis of Peptide 3A • Human dermal fibroblasts (Fb, Cascade Biologics, OR) were cultured to 80% confluence • 2 ml CHX (0.002%) in basal medium ±1 μg/ml Tb4 or 1.0, 0.1, 0.01, or 0.001 μg/ml peptide 3A was added to Fb for 1, 2, 3, or 4 hours • 100 μl culture medium (n=4) was added to 100 μl LDH reagent and incubated at room temperature for 20 minutes • OD500 nm was read and averages ±SEM were calculated • Data was analyzed with probability of p≦0.05

human dermal Fb = assay: CHX-induced apoptosis (APOPercentage dye) in human dermal Fb; type: cell-based; parameters: key to Inhibits apoptosis: P = active; U = useful; settings: summary of peptide uses
Procedure: Effect of Tb4 and Peptide 3A on CHX-induced apoptosis • Human dermal Fb were cultured to 80% confluence • Fb were treated with 0.002% CHX+1 μg/ml Tb4 or peptide 3A, 4A or 6A for 1.5 hours • APOPercentage “dye” was added to the Fb cultures at a 1:50 dilution for an additional 30 minutes • Excess dye was washed from the cells, and digital images were captured. Cells dyed red were apoptotic • Adobe Photoshop was used to calculate the number of red pixels in six digitized images for each treatment • Statistical analysis was done using the t-test

[5] = tested on: TNF-a-stimulated IL8 secretion; assay: Suppression of inflammation (summary table; IL-8 secretion); type: cell-based, human; parameters: key: P = active; U = useful; settings: summary of peptide uses
Procedure: Analysis of IL-8 Secretion • Human corneal epithelial cells or dermal Fb were cultured to 80% confluence • Cells were pre-treated with 1 μg/ml Tb4 or peptides for one hour • Cells were stimulated with 10 ng/ml TNF-a in the presence or absence of Tb4 or peptides • Culture medium was analyzed for secreted IL-8 by ELISA (n=3, experiments repeated twice) • Data was analyzed using the t-test

[6] = tested on: Transformed human corneal epithelial cells (HCET); assay: Collagen type IV secretion ELISA; type: cell-based; parameters: key to Stimulates collagen IV: P = active; U = useful; settings: for Collagen type IV secretion: corneal epithelial cells, 1 μg/ml, 24 hours; for Stimulates collagen IV: summary of peptide uses
Procedure: Effect of Tb4 and peptides on collagen type IV secretion • Transformed human corneal epithelial cells (HCET) were cultured to 80% confluence • Cells were treated with 1 μg/ml Tb4 or peptides for 24 hours • Culture supernatant samples (n=3 per experiment, total of 4 experiments) were analyzed using a collagen type IV ELISA • Data was analyzed using the t-test

[7] = tested on: p65 subunit of NFkB in human corneal epithelial cells; assay: NFkB nuclear translocation; type: cell-based; parameters: key: P = active; U = useful; settings: summary of peptide uses
Procedure: Analysis of NFkB Nuclear Translocation • Human corneal epithelial cells were cultured to 80% confluence • Cells were pre-treated with 1 μg/ml Tb4 or peptide 4A or 6A for one hour • Cells were stimulated with 10 ng/ml TNF-a in the presence or absence of Tb4 or peptides for 15 minutes • Cells were fixed and labeled with antibodies to the p65 subunit of NFkB

Inhibition of IkBa phosphorylation (NFkB signaling pathway) (IKKb; cell-free, 1.0, 0.1, and 0.01 ng/ml)	Inhibits IkBa phosphorylation (IKKb; summary of peptide uses)	Substance	Promotes neurite outgrowth (neurite outgrowth)	Inhibits tissue damage caused by UV radiation [1]	Protects tissue from UV radiation damage [1]	Promotes neuron survival (neuron survival)	Stimulation of secretion of collagens (human dermal fibroblasts [2]; human dermal fibroblasts, 1 μg/ml once/day, after 3 days of treatment)	Stimulates collagens (human dermal fibroblasts [2])	Stimulates L1 production (L1)	Inhibits collagens (human dermal fibroblasts [2])	Stimulates Migration (cell migration)	Secretion of elastin (human dermal fibroblasts [3])	Stimulates Elastin (human dermal fibroblasts [3])	Protection of Fb against the cytotoxic effects of CHX (LDH) (human dermal fibroblasts [4]; 1 μg/ml, 0.002% CHX, 2 hour exposure)	Protects from cytotoxicity (human dermal fibroblasts [4])	Inhibits apoptosis (human dermal Fb)	Suppresses inflammation [5]	Collagen type IV secretion [6]	Stimulates collagen IV [6]	Inhibits NFkB translocation [7]
		Ac-Glu-Lys-Asn-Pro-Leu-Pro-Ser-Lys-Glu-Thr-OH (Ac-EKNPLPSKET-OH) [Peptide 5B]	U	U	U	U	stimulates	P	U											
may have an effect	P	Ac-Ile-Glu-Gln-Glu-Lys-Gln-Ala-Gly-Glu-Ser-OH (Ac-IEQEKQAGES-OH) [Peptide 6B]	U	U	U	U			U	P										
		Ac-Leu-Lys-Lys-Thr-Glu-Thr-Gln-OH (Ac-LKKTETQ-OH) [Peptide 4B]	U	U	U	U			U		P	stimulate	P							
		Ac-Leu-Lys-Lys-Thr-Glu-Thr-OH (Ac-LKKTET-OH) [Peptide 1B]	U	U	U	U			U	P										
		Ac-Met-Ala-Glu-Ile-Glu-Lys-Phe-Asp-Lys-Ser-OH (Ac-MAEIEKFDKS-OH) [Peptide 7B]	U	U	U	U			U	U		stimulate	U							
		Ac-SDKPDMAEIEKFDKS-OH [Peptide 3B]	U	U	U	U			U	P				protect	P					
		Ac-SDKPDMAEIEKFDKSKLKKTET-OH [Fragment Ab]	U	U	U	U		U	U	U	U		U		U	U	U			
		Ac-SDKPDMAEIEKFDKSKLKKTETQ-OH [Fragment Bb]	U	U	U	U		U	U	U	U		U		U	U	U			
		H-Glu-Lys-Asn-Pro-Leu-Pro-Ser-Lys-Glu-Thr-OH (H-EKNPLPSKET-OH) [Peptide 5A]	U	U	U	U			U		P									
		H-Ile-Glu-Gln-Glu-Lys-Gln-Ala-Gly-Glu-Ser-OH (H-IEQEKQAGES-OH) [Peptide 6A]	U	U	U	U			U	P										
		H-Leu-Lys-Lys-Thr-Glu-Thr-Gln-OH (H-LKKTETQ-OH) [Peptide 4A]	U	U	U	U			U			stimulates	P					stimulate	P	P
		H-Met-Ala-Glu-Ile-Glu-Lys-Phe-Asp-Lys-Ser-OH (H-MAEIEKFDKS-OH) [Peptide 7A]	U	U	U	U			U	P										
		H-Ser-Asp-Lys-Pro-OH (H-SDKP-OH) [Peptide 2A]	U	U	U	U			U	P								stimulate	P	
